Results published in patent US12421229B2, “Hydropyrido[1,2-α]pyrazine compounds for the treatment of autoimmune disease” (Hoffmann-La Roche Inc., priority 2019, dated 2025).

Target: T1, human TLR7 (Homo sapiens, UniProt Q9NYK1)
T1 construct: host or cells: HEK293 (HEK-Blue hTLR7)
T1 sequence (Q9NYK1 27-1049): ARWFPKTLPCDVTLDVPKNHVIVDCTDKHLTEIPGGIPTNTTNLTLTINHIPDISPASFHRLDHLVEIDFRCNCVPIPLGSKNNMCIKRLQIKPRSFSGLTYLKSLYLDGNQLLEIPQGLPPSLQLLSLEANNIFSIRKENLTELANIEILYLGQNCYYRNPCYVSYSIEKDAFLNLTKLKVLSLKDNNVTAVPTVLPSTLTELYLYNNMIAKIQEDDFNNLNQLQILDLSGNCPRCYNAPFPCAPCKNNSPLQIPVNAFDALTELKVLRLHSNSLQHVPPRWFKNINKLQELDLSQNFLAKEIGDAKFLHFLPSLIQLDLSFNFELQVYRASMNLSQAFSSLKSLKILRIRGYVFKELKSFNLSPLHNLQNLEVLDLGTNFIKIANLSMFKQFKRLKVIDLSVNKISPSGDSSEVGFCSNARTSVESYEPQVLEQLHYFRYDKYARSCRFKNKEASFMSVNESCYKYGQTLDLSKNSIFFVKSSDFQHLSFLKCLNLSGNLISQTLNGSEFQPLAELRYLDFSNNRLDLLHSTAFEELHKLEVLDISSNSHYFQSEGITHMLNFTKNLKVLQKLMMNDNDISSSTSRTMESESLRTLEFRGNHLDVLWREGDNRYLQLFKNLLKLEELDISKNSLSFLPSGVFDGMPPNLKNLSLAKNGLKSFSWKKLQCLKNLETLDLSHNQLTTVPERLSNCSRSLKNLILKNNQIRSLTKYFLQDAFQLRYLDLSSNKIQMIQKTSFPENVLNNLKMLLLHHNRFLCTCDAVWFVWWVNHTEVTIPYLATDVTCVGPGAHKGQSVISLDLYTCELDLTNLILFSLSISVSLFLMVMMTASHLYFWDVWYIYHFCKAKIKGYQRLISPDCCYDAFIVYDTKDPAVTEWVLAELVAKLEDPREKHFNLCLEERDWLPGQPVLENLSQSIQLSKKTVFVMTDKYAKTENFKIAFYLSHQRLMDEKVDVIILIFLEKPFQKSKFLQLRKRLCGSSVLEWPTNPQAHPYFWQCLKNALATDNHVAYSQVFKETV
Test: HEK293-Blue-hTLR-7 cells assay
Assay type: cell-based
Details: HEK293-Blue-hTLR7 cells, R848 stimulation, 20 hrs, SEAP reporter; read-out: HEK/hTLR7 IC50
Text: A stable HEK293-Blue-hTLR-7 cell line was purchased from InvivoGen (Cat. #: hkb-htlr7, San Diego, California, USA). These cells were originally designed for studying the stimulation of human TLR7 by monitoring the activation of NF-κB. A SEAP (secreted embryonic alkaline phosphatase) reporter gene was placed under the control of the IFN-β minimal promoter fused to five NF-κB and AP-1-binding sites. The SEAP was induced by activating NF-κB and AP-1 via stimulating HEK-Blue hTLR7 cells with TLR7 ligands. Therefore the reporter expression was declined by TLR7 antagonist under the stimulation of a ligand, such as R848 (Resiquimod), for incubation of 20 hrs. The cell culture supernatant SEAP reporter activity was determined using QUANTI-Blue™ kit (Cat. #: rep-qb1, Invivogen, San Diego, Ca, USA) at a wavelength of 640 nm, a detection medium that turns purple or blue in the presence of alkaline phosphatase.
HEK293-Blue-hTLR7 cells were incubated at a density of 250,000˜450,000 cells/mL in a volume of 170 μL in a 96-well plate in Dulbecco's Modified Eagle's medium (DMEM) containing 4.5 g/L glucose, 50 U/mL penicillin, […], […], 2 mM L-glutamine, 10% (v/v) heat-inactivated fetal bovine serum with addition of 20 μL test compound in a serial dilution in the presence of final DMSO at 1% and 10 μL of 20 uM R848 in above DMEM, perform incubation under 37° C. in a CO2 incubator for 20 hrs. Then 20 μL of the supernatant from each well was incubated with 180 μL Quanti-blue substrate solution at 37° C. for 2 hrs and the absorbance was read at 620˜655 nm using a spectrophotometer. The signaling pathway that TLR7 activation leads to downstream NF-κB activation has been widely accepted, and therefore similar reporter assay was modified for evaluating TLR7 antagonist.

IC50 | Compound
44 nM | [2H]c1ccc2c(N3C[C@@H]4C[C@H](Nc5ccc(C[C@@H]6CNCCO6)cc5)CCN4[C@H](C)C3)ccc(C#N)c2n1 [Example 22, 5-[(4R,8R,9aS)-4-methyl-8-[4-[[(2R)-morpholin-2-yl]methyl]anilino]-1,3,4,6,7,8,9,9a-octahydropyrido[1,2-a]pyrazin-2-yl]-2-deuterio-quinoline-8-carbonitrile]
21 nM | C[C@@H]1CN(c2ccc(C#N)c3ncccc23)C[C@@H]2C[C@H](c3ccc(N4CCOC[C@@H](N)C4)nc3)CCN21 [Example 23, 5-[(4R,8R,9aS)-8[6-[(6S)-6-amino-1,4-oxazepan-4-yl]-3-pyridyl]-4-methyl-1,3,4,6,7,8,9,9a-octahydropyrido[1,2-a]pyrazin-2-yl]quinoline-8-carbonitrile]
47 nM | CO[C@H]1CN(c2ccc(O[C@H]3CCN4[C@@H](C3)CN(c3ccc(C#N)c5ncccc35)C[C@H]4C)cn2)C[C@H]1N [Example 28, 5-[(4R,8S,9aS)-8-[[6-[(3R,4S)-3-amino-4-methoxy-pyrrolidin-1-yl]-3-pyridyl]oxy]-4-methyl-1,3,4,6,7,8,9,9a-octahydropyrido[1,2-a]pyrazin-2-yl]quinoline-8-carbonitrile]
49 nM | C[C@@H]1CN(c2ccc(C#N)c3ncccc23)C[C@@H]2C[C@@H](Oc3cncc(N4CCNCC4)c3)CCN21 [Example 29, 5-[(4R,8S,9aS)-4-methyl-8-[(5-piperazin-1-yl-3-pyridyl)oxy]-1,3,4,6,7,8,9,9a-octahydropyrido[1,2-a]pyrazin-2-yl]quinoline-8-carbonitrile]
41 nM | CO[C@@H]1CN(c2ccc(C3CN([C@@H]4CCN5[C@@H](C4)CN(c4ccc(C#N)c6ncccc46)C[C@H]5C)C3)cc2)C[C@H]1N [Example 30, 5-[(4R,8R,9aS)-8-[3-[4-[(3R,4R)-3-amino-4-methoxy-pyrrolidin-1-yl]phenyl]azetidin-1-yl]-4-methyl-1,3,4,6,7,8,9,9a-octahydropyrido[1,2-a]pyrazin-2-yl]quinoline-8-carbonitrile]
47 nM | [2H]c1ccc2c(N3C[C@@H]4C[C@H](Nc5ccc(C[C@H]6CNCCO6)cc5)CCN4[C@H](C)C3)ccc(C#N)c2n1 [Example 34, 5-[(4R,8R,9aS)-4-methyl-8-[4-[[(2S)-morpholin-2-yl]methyl]anilino]-1,3,4,6,7,8,9,9a-octahydropyrido[1,2-a]pyrazin-2-yl]-2-deuterio-quinoline-8-carbonitrile]

The next lines start with the compound.

Compound | IC50
C[C@@H]1CN(c2ccc(C#N)c3ncccc23)C[C@@H]2C[C@@H](c3ccc(C4CNCCO4)cc3)CCN21 (stereo partly drawn) [Example 24, 5-[(4R,8S,9aS)-4-methyl-8-(4-morpholin-2-ylphenyl)-1,3,4,6,7,8,9,9a-octahydropyrido[1,2-a]pyrazin-2-yl]quinoline-8-carbonitrile] | 4 nM
C[C@@H]1CN(c2ccc(C#N)c3ncccc23)C[C@@H]2C[C@@H](c3ccc(CC4CNCCO4)cc3)CCN21 (stereo partly drawn) [Example 26, 5-[(4R,8S,9aS)-4-methyl-8-[4-(morpholin-2-ylmethyl)phenyl]-1,3,4,6,7,8,9,9a-octahydropyrido[1,2-a]pyrazin-2-yl]quinoline-8-carbonitrile] | 30 nM
C[C@@H]1CN(c2ccc(C#N)c3ncccc23)C[C@@H]2C[C@H](c3ccc([C@@H]4CNCCO4)cc3)CCN21 [Example 27, 5-[(4R,8R,9aS)-4-methyl-8-[4-[(2R)-morpholin-2-yl]phenyl]-1,3,4,6,7,8,9,9a-octahydropyrido[1,2-a]pyrazin-2-yl]quinoline-8-carbonitrile] | 4 nM
CO[C@H]1CN(c2ccc(C3CN([C@@H]4CCN5[C@@H](C4)CN(c4ccc(C#N)c6ncccc46)C[C@H]5C)C3)cc2)C[C@H]1N [Example 32, 5-[(4R,8R,9aS)-8-[3-[4-[(3R,4S)-3-amino-4-methoxy-pyrrolidin-1-yl]phenyl]azetidin-1-yl]-4-methyl-1,3,4,6,7,8,9,9a-octahydropyrido[1,2-a]pyrazin-2-yl]quinoline-8-carbonitrile] | 48 nM
[2H]c1ccc2c(N3C[C@@H]4C[C@@H](N5CC(c6ccc(N7C[C@@H](N)[C@H](OC)C7)cc6)C5)CCN4[C@H](C)C3)ccc(C#N)c2n1 [Example 36] | 30 nM
[2H]c1ccc2c(N3C[C@@H]4C[C@H](N5CCN(c6ccncc6)CC5)CCN4[C@H](C)C3)ccc(C#N)c2n1 [Example 37, 5-[(4R,8R,9aS)-4-methyl-8-[4-(4-pyridyl)piperazin-1-yl]-1,3,4,6,7,8,9,9a-octahydropyrido[1,2-a]pyrazin-2-yl]-2-deuterio-quinoline-8-carbonitrile] | 11 nM
